pIC50: −log10 of the molar value. Calls of active or inactive are those of the source. No cut-off for these calls is given here.
Legend:
[1] = Drug uptake in Escherichia coli harboring tolC deletion mutant at 10 uM incubated for 30 mins by LC analysis; type: ADME; conditions: 0.5 h
Staphylococcus aureus [2] = test: Antibacterial activity against Staphylococcus aureus Newman D2C NCTC 10833 assessed as reduction in microbial growth incubated for 16 hrs by serial dilution method; type: functional
[3] = target: UDP-N-acetylglucosamine 1-carboxyvinyltransferase (Escherichia coli K-12, UniProt P0A749); test: Inhibition of Escherichia coli K12 His-tagged MurA expressed in Escherichia coli BL21 cells using UNAG as substrate pre incubated for 15 mins followed by substrate addition and measured after 15 mins by microplate reader analysis
Escherichia coli = test: Antibacterial activity against Escherichia coli harboring tolC deletion mutant assessed as reduction in microbial growth incubated for 16 hrs by serial dilution method; type: functional
[4] = Drug uptake in Escherichia coli harboring tolC deletion mutant assessed per 1.6x10^9 cells at 10 uM incubated for 30 mins by LC analysis; type: ADME; conditions: 0.5 h
[5] = system: UDP-N-acetylglucosamine 1-carboxyvinyltransferase (Escherichia coli K-12), P0A749 [C115D]; test: Inhibition of Escherichia coli MurA C115D mutant using UNAG as substrate pre incubated for 15 mins followed by substrate addition and measured after 15 mins by microplate reader analysis; conditions: time 30.0 min
[6] = target: UDP-N-acetylglucosamine 1-carboxyvinyltransferase (Escherichia coli K-12) (UniProt P0A749); test: Inhibition of Escherichia coli K12 His-tagged MurA expressed in Escherichia coli BL21 cells at 50 uM using UNAG as substrate pre incubated for 15 mins followed by substrate addition and measured after 15 mins by microplate reader analysis relative to control; conditions: time 30.0 min
[7] = target: UDP-N-acetylglucosamine 1-carboxyvinyltransferase (Escherichia coli K-12, UniProt P0A749, C115D); test: Inhibition of Escherichia coli MurA C115D mutant at 50 uM using UNAG as substrate pre incubated for 15 mins followed by substrate addition and measured after 15 mins by microplate reader analysis relative to control
Clostridioides difficile = test: Antibacterial activity against Clostridioides difficile ATCC BAA1870 assessed as reduction in microbial growth incubated for 48 hrs by broth microdilution method; type: functional
Staphylococcus aureus [8] = test: Antibacterial activity against methicillin resistant Staphylococcus aureus NRS119 assessed as reduction in microbial growth by CLSI based broth microdilution method; type: functional
Enterococcus faecalis = test: Antibacterial activity against Enterococcus faecalis ATCC 51299 assessed as reduction in microbial growth by CLSI based broth microdilution method; type: functional
Streptococcus pneumoniae = test: Antibacterial activity against Streptococcus pneumoniae ATCC 700677 assessed as reduction in microbial growth by CLSI based broth microdilution method; type: functional
Staphylococcus aureus [9] = test: Antibacterial activity against methicillin resistant Staphylococcus aureus USA300 assessed as reduction in microbial growth by CLSI based broth microdilution method; type: functional
Staphylococcus aureus [10] = test: Antibacterial activity against methicillin sensitive Staphylococcus aureus NRS107 assessed as reduction in microbial growth by CLSI based broth microdilution method; type: functional
Staphylococcus aureus [11] = test: Antibacterial activity against vancomycin resistant Staphylococcus aureus 10 assessed as reduction in microbial growth by CLSI based broth microdilution method; type: functional
Bacteria = test: Binding affinity to wild type U15-N labelled MurA (unknown origin) expressed in Escherichia coli at 200 uM using UNAG as substrate incubated for 90 to 150 mins by 15N-1H-HSQC NMR analysis; conditions: time 90-150 min

UDP-N-acetylglucosamine 1-carboxyvinyltransferase (Escherichia coli K-12, UniProt P0A749), sequence (P0A749 whole entry): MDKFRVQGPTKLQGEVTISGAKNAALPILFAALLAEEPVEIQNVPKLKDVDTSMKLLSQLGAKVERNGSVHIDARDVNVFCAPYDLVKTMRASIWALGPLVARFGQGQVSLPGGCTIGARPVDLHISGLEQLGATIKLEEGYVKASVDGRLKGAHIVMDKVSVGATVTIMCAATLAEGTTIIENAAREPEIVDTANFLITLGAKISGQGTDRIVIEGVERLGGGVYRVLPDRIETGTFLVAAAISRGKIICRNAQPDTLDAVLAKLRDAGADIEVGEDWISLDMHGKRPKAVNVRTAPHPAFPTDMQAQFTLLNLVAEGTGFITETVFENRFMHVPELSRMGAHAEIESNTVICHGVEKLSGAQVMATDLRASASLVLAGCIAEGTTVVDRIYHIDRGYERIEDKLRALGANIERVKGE
UDP-N-acetylglucosamine 1-carboxyvinyltransferase (Escherichia coli K-12), sequence (P0A749 whole entry): as above
UDP-N-acetylglucosamine 1-carboxyvinyltransferase (Escherichia coli K-12, UniProt P0A749, C115D), sequence (P0A749 whole entry C115D): as the sequence (P0A749 whole entry) above, with C115D counted along it
UDP-N-acetylglucosamine 1-carboxyvinyltransferase (Escherichia coli K-12), P0A749 [C115D], sequence (P0A749 whole entry C115D): as the sequence (P0A749 whole entry) above, with C115D counted along it

## O=C(Nc1ccc(-c2cn[nH]c2)cc1)C1CN(c2cccc(Cl)c2)N(c2cccc(Cl)c2)C1=O (stereo not given)
[1]
  Drug uptake: 348 nM
Staphylococcus aureus [2]
  MIC: > 40 µM
[3]
  pIC50: 4.91
Escherichia coli
  MIC: > 40 µM
[4]
  Drug uptake: 11 µM
[5]
  inhibition: 77.2%
[6]
  inhibition: 76.5%
[7]
  pIC50: 4.91

## N#Cc1cnc(NC(=O)C2CN(c3cccc(Cl)c3)N(c3cccc(Cl)c3)C2=O)s1 (stereo not given)
[1]
  Drug uptake: 2560 nM
Staphylococcus aureus [2]
  MIC: 10 µM
Clostridioides difficile
  MIC: 32 µg/mL
Staphylococcus aureus [8]
  MIC: 16 µg/mL
Enterococcus faecalis
  MIC: > 64 µg/mL
Streptococcus pneumoniae
  MIC: 32 µg/mL
Staphylococcus aureus [9]
  MIC: 32 µg/mL
Staphylococcus aureus [10]
  MIC: 8 µg/mL
[3]
  pIC50: 4.96
Escherichia coli
  MIC: 10 µM
[4]
  Drug uptake: 84 µM
[6]
  inhibition: 70.8%
Staphylococcus aureus [11]
  MIC: 8 µg/mL

## O=C1NC(=O)c2cc(NC(=O)C3CN(c4cccc(Cl)c4)N(c4cccc(Cl)c4)C3=O)ccc21 (stereo not given)
[1]
  Drug uptake: 924 nM
Staphylococcus aureus [2]
  MIC: > 40 µM
Bacteria
  Activity: Active
[3]
  pIC50: 4.95
Escherichia coli
  MIC: 17 µM
[4]
  Drug uptake: 30 µM
[5]
  inhibition: 74%
[6]
  inhibition: 81.6%
[7]
  pIC50: 4.90

— ChEMBL document CHEMBL5537113, “Discovery of 1,2-diaryl-3-oxopyrazolidin-4-carboxamides as a new class of MurA enzyme inhibitors and characterization of their antibacterial activity” (Eur J Med Chem, 2023)
